Experimental data published in US20230020092 (published 2023).
{C6NH2} = C6 amino linker (-C6-NH2)

Test: fmoc spps; Rink amide resin (1.0 mmol/g); HATU/DIEA (cyclization)
Settings: conjugation step, scale 1 mmol, TFA salt

## 5'-GCT ATT ACC TTA ACC CAG-3' -C6-NH2 (all PMO monomers) (SEQ ID NO: 222) (GCTATTACCTTAACCCAG; all phosphorodiamidate morpholino (PMO), 3' {C6NH2})
  final purity method not stated: >99%
